# Reference: patent US20070249607A1, “NK-1 AND SEROTONIN TRANSPORTER INHIBITORS” (Bristol-Myers Squibb Company, priority 2006, published 2007)
# Where two headings read alike, the source gives them in different places.
# Assays:
# [1] = target: T1, neurokinin-1 (NK-1) receptor (Homo sapiens, UniProt P25103); test: NK-1 Binding assay ([125I] Substance P competition, U373 cell membranes)
# T1 construct: a human glioblastoma-astrocytoma cell line that endogenously expresses the neurokinin-1 (NK-1) receptor; endogenous in cells; host or cells: U373 human glioblastoma-astrocytoma cells (membranes)
# Procedure: NK-1 Binding assay. U373 cells, a human glioblastoma-astrocytoma cell line that endogenously expresses the neurokinin-1 (NK-1) receptor, were grown in a monolayer culture at 37° C. in 5% CO2 and fed with Minimum Essential Medium (MEM) supplemented with 10% fetal bovine serum. Membranes were prepared as follows: Cells were washed twice with ice-cold phosphate-buffered saline (pH 7.4) and then incubated for 5-10 minutes with ice-cold 10 mM Tris buffer (pH 7.4) containing 5 mM EDTA. Cells were removed from plates, homogenized, and centrifuged at 32,000×g for 20 minutes. The resulting supernatant was discarded, and the pellet resuspended by homogenization in 50 mM Tris buffer (pH 7.4) containing 1 mM EDTA and centrifuged at 32,000×g for 20 minutes. The resulting supernatant was discarded, and the pellet resuspended by homogenization in NK-1 binding assay buffer (50 mM Tris-HCL (pH 7.4), 3 mM MnCl2, 200 μg/ml BSA, 5 μg/ml chymostatin, 40 μg/ml bacitracin and 4 μg/ml leupeptin).
# On the day of an experiment the membrane preparation was thawed, homogenized and diluted with NK-1 binding assay buffer to the appropriate concentration. […] Substance P, at a concentration of […], and concentrations of drugs ranging from 10000 to 0.01 nM. Samples were incubated for 30 min at 20° C. then filtered through GF/B glass fiber filters (pretreated with 1% polyethyleneimine and 0.3% Triton X-100) using a Brandel cell harvester. The filters were then washed with 10 ml ice cold 50 mM Tris-HCL (pH 7.4) containing 3 mM MgCl2. […] The amount of radioligand bound in the presence and absence of competitor was analyzed by plotting (-)log drug concentration versus the amount of radioligand specifically bound. The midpoint of the displacement curve (IC50, nM), signifies the potency.
# [2] = target: T2, human serotonin transporters (Homo sapiens, UniProt P31645); test: Serotonin transporter binding assay ([3H]-citalopram competition, HEK-hSERT cell membranes)
# T2 construct: expressed in transfected cells
# Procedure: Serotonin transporter binding assay. HEK-293 cells that stably express human serotonin transporters (HEK-hSERT cells) were grown at 37° C. in 5% CO2 as a monolayer in medium consisting of EMEM supplemented with 10% fetal bovine serum and G418 sulfate (500 μg/ml). To prepare membranes for radioligand binding experiments, cells were rinsed twice with phosphate-buffered saline (138 mM NaCl, 4.1 mM KCl, 5.1 mM Na2PO4, 1.5 mM KH2PO4, 11.1 mM glucose, pH 7.4). Cells were transferred from plates to polypropylene tubes (16×100 mm), centrifuged at 1,200×g for 5 min and were frozen at −80° C. until assay. Following centrifugation, pellets were resuspended by homogenization in buffer consisting of 50 mM Tris (pH 7.7 at 25° C.), 120 mM NaCl and 5 mM KCl and then centrifuged at 32,000×g for 10 min. Following centrifugation, supernatants were discarded and pellets were resuspended in buffer consisting of 50 mM Tris (pH 7.4 at 25° C.), 150 mM NaCl and 5 mM KCl. Membrane homogenates (200 μl/plate) were incubated with 1 nM [^3H]-citalopram (specific activity=85 Ci/mmol) and increasing concentrations of test compounds for 1 hr at 25° C. in a total volume of 250 μl. The assay buffer consisted of 50 mM Tris (pH 7.4 at 25° C.), 120 mM NaCl and 5 mM KCl (pH 7.4 with conc. HCl). Plates were incubated for 1 hr at 25° C., then filtered through 0.5% PEI treated Whatman GF/B filters using a Brandel cell harvester. Filters were washed three times with 3 ml of ice-cold tris wash buffer. Non-specific binding was defined with 10 μM fluoxetine. Amount of radioligand bound in the presence and absence of competitor was analyzed by plotting (-)log drug concentration versus the amount of radioligand specifically bound. The midpoint of the displacement curve (IC50, nM), signifies the potency. Ki values can be calculated using the method of Cheng and Prusoff (Cheng and Prusoff, BiochemicalPharmacology, Vol 22, pp. 3099-3108, Pergamon Press (1973)).
# [3] = Table 2, U373 membranes, [125I] Substance P displacement, read-out: NK-1 IC50
# [4] = Table 2, HEK-hSERT membranes, [3H]-citalopram displacement, read-out: SERT IC50
# [5] = Table 1, U373 membranes, [125I] Substance P displacement, read-out: NK-1 IC50
# [6] = Table 1, HEK-hSERT membranes, [3H]-citalopram displacement, read-out: SERT IC50
# T1 sequence (P25103 whole entry): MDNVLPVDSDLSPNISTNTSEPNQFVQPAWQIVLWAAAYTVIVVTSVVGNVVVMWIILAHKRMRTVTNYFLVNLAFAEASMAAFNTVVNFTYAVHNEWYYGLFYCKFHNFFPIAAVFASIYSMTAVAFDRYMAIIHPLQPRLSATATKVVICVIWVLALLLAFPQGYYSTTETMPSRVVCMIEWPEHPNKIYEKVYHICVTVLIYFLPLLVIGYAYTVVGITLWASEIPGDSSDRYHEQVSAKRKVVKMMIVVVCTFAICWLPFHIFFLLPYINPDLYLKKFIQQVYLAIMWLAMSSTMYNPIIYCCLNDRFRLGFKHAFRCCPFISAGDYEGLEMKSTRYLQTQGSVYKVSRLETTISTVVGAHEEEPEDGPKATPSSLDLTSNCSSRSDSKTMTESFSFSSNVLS
# T2 sequence (P31645 whole entry): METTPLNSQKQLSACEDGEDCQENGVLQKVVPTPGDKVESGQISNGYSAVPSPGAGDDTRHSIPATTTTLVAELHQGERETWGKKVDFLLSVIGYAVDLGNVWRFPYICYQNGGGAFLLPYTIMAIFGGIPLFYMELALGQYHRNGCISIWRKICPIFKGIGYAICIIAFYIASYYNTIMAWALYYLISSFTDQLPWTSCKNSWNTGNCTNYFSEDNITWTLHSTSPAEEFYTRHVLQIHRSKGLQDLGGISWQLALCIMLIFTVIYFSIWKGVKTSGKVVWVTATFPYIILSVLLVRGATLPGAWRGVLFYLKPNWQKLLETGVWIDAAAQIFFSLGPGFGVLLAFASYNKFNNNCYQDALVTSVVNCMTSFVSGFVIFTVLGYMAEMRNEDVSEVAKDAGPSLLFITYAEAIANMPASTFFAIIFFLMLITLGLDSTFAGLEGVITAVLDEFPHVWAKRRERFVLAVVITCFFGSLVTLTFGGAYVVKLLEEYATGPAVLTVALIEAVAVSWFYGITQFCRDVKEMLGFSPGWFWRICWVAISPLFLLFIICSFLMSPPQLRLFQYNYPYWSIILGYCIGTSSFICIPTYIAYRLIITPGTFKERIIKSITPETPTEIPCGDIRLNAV
"IC50 [1, 3]","IC50 [2, 4]","IC50 [1, 5]","IC50 [2, 6]",SMILES,other results
0.01 to 100 nM,0.01 to 100 nM,,,N#Cc1ccc(-c2cc(COCC3(c4ccccc4)CCNCC3)cc(C(F)(F)F)c2)cc1F,
0.01 to 100 nM,0.01 to 100 nM,,,Cc1cc(C#N)ccc1-c1cc(COCC2(c3ccccc3)CCNCC2)cc(C(F)(F)F)c1,
,,0.01 to 100 nM,0.01 to 100 nM,COc1ccc(-c2cc(COCC3(c4ccccc4)CCNCC3)cc(C(F)(F)F)c2)c(OC)c1,
,,0.01 to 100 nM,0.01 to 100 nM,Nc1ccc(-c2cc(COCC3(c4ccccc4)CCNCC3)cc(C(F)(F)F)c2)cn1,
,,0.01 to 100 nM,0.01 to 100 nM,FC(F)(F)c1cc(COCC2(c3ccccc3)CCNCC2)cc(-c2ccncc2)c1,
0.01 to 100 nM,0.01 to 100 nM,,,CC(OCC1(c2ccccc2)CCNCC1)c1cc(F)cc(-c2ccc(C#N)cc2)c1 (stereo not drawn),
0.01 to 100 nM,0.01 to 100 nM,,,COc1ccc(-c2cc(COCC3(c4ccccc4)CCNCC3)cc(C(F)(F)F)c2)nn1,
,,0.01 to 100 nM,0.01 to 100 nM,Fc1cccc(-c2cc(COCC3(c4ccccc4)CCNCC3)cc(C(F)(F)F)c2)c1,
,,0.01 to 100 nM,0.01 to 100 nM,FC(F)(F)c1cc(COCC2(c3ccccc3)CCNCC2)cc(-c2ccc3c(c2)OCO3)c1,
,,0.01 to 100 nM,0.01 to 100 nM,FC(F)(F)c1cc(COCC2(c3ccccc3)CCNCC2)cc(-c2ccc(Cl)c(Cl)c2)c1,
,,0.01 to 100 nM,0.01 to 100 nM,Fc1cc(F)cc(-c2cc(COCC3(c4ccccc4)CCNCC3)cc(C(F)(F)F)c2)c1,
0.01 to 100 nM,0.01 to 100 nM,,,Fc1cccc(-c2cc(COCC3(c4ccccc4)CCNCC3)cc(C(F)(F)F)c2)c1F,
,,0.01 to 100 nM,0.01 to 100 nM,CC(OCC1(c2ccccc2)CCNCC1)c1cc(-c2ccc(C#N)cc2)cc(C(F)(F)F)c1 (stereo not drawn),
,,0.01 to 100 nM,0.01 to 100 nM,Fc1ncccc1-c1cc(COCC2(c3ccccc3)CCNCC2)cc(C(F)(F)F)c1,
,,> 300 nM,0.01 to 100 nM,COc1cc(-c2cc(COCC3(c4ccccc4)CCNCC3)cc(C(F)(F)F)c2)c(Cl)cn1,
0.01 to 100 nM,0.01 to 100 nM,,,COc1ccc(-c2cc(COCC3(c4ccccc4)CCNCC3)cc(C(F)(F)F)c2)c(F)c1F,
,,100 to 300 nM,0.01 to 100 nM,CSc1ccccc1-c1cc(COCC2(c3ccccc3)CCNCC2)cc(C(F)(F)F)c1,
,,0.01 to 100 nM,0.01 to 100 nM,N#Cc1ccc(-c2cc(Br)cc(COCC3(c4ccccc4)CCNCC3)c2)cc1,
0.01 to 100 nM,0.01 to 100 nM,,,N#Cc1ccc(-c2cc(COCC3(c4ccc(F)cc4Br)CCNCC3)cc(C(F)(F)F)c2)cc1,
,,0.01 to 100 nM,0.01 to 100 nM,COc1ncc(-c2cc(COCC3(c4ccccc4)CCNCC3)cc(C(F)(F)F)c2)cn1,
> 300 nM,0.01 to 100 nM,,,Oc1cc(COCC2(c3ccccc3)CCNCC2)cc(-c2ccc(F)cc2)c1,

SMILES,"IC50 [1, 3]","IC50 [2, 4]","IC50 [1, 5]","IC50 [2, 6]",other results
CN1CCC(COCc2cc(-c3ccc(C#N)cc3)cc(C(F)(F)F)c2)(c2cccc(Cl)c2)CC1,0.01 to 100 nM,,,,IC50 [2]: 0.01 to 100 nM
CN1CCC(COCc2cc(-c3ccc(F)cc3F)cc(C(F)(F)F)c2)(c2ccccc2)CC1,0.01 to 100 nM,,,,IC50 [2]: 0.01 to 100 nM
CC(C)N1CCC(COCc2cc(-c3ccc(C#N)cc3)cc(C(F)(F)F)c2)(c2ccccc2)CC1,,> 300 nM,,,IC50 [1]: 0.01 to 100 nM
COc1ccc(-c2cc(COCC3(c4ccccc4)CCN(C)CC3)cc(C(F)(F)F)c2)cc1F,0.01 to 100 nM,,,,IC50 [2]: 0.01 to 100 nM
CN1CCC(COCc2cc(-c3cc(F)c(C#N)c(F)c3)cc(C(F)(F)F)c2)(c2ccccc2)CC1,0.01 to 100 nM,,,,IC50 [2]: 0.01 to 100 nM
CN1CCC(COCc2cc(-c3cc(F)c(C#N)cc3F)cc(C(F)(F)F)c2)(c2ccccc2)CC1,0.01 to 100 nM,,,,IC50 [2]: 0.01 to 100 nM
